According to PubChem BioAssay (NCI):
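These data come from cells grown in 96-well plates and exposed to compound for 48 hours at five concentrations. GI50 is the concentration that inhibits growth by half. The concentration for full growth arrest is given as TGI.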

Legend:
Assay in all cases: growth of human tumour cells (NCI), 48 h
SW-620 colon = test system: SW-620 colon
HCT-15 colon = test system: HCT-15 colon
SNB-19 CNS = test system: SNB-19 CNS
NCI-H23 lung = test system: NCI-H23 lung
NCI-H226 lung = test system: NCI-H226 lung
OVCAR-4 ovarian = test system: OVCAR-4 ovarian
COLO 205 colon = test system: COLO 205 colon
SF-295 CNS = test system: SF-295 CNS

Structure (SMILES)	TGI (SW-620 colon) [µM]	TGI (HCT-15 colon) [µM]	TGI (SNB-19 CNS) [µM]	TGI (NCI-H23 lung) [µM]	TGI (NCI-H226 lung) [µM]	TGI (OVCAR-4 ovarian) [µM]	TGI (COLO 205 colon) [µM]	TGI (SF-295 CNS) [µM]	GI50 (SW-620 colon) [µM]	GI50 (SNB-19 CNS) [µM]	GI50 (NCI-H23 lung) [µM]	GI50 (OVCAR-4 ovarian) [µM]	GI50 (COLO 205 colon) [µM]	GI50 (SF-295 CNS) [µM]
CCO/C=C1\N=C(c2ccccc2Br)OC1=O	> 100	> 100	> 100	> 100	> 100	> 100	> 100	> 100	–	–	–	–	–	–
N#Cc1ccc(N=Cc2c([O-])ccc3ccccc23)cc1.[C-]#[O+].[C-]#[O+].[Ir]	4.09	–	33.2	24.4	–	17.7	4	35.7	1.93	18.4	10.5	3.85	1.96	16.9
COCCOCOc1ccc(OCOCCOC)c2c1C(=O)c1ccccc1C2=O	> 100	> 100	> 100	> 100	> 100	> 100	> 100	> 100	–	–	–	–	–	–
CCOC1=C2N=C(Cc3ccccc3F)N=C2C(=O)c2ccccc21	> 100	> 100	> 100	> 100	> 100	> 100	> 100	> 100	–	–	–	–	–	–
O=C(Cc1ccccc1)NN1C(=O)C(Cl)C1c1ccccc1O (configuration not stated)	> 100	> 100	82	> 100	52.5	> 100	> 100	> 100	–	–	–	–	–	–
COc1cc(-c2cc(-c3cc([N+](=O)[O-])c(/C=N/NC(=O)c4ccncc4)o3)ccc2OC)ccc1C	> 100	–	> 100	> 100	> 100	> 100	> 100	> 100	–	–	–	–	–	–
COC(=O)C(C)(C)N=CN(C)C	> 100	> 100	> 100	> 100	> 100	> 100	> 100	> 100	–	–	–	–	–	–
COC(CN1C=C(Sc2ccccc2)CC1)OC	47.9	> 100	> 100	69.7	> 100	> 100	47.4	71	–	–	–	–	–	–
CCCCCCCCCCCCCP(=O)(O)NCC(N)=O	> 100	> 100	> 100	> 100	> 100	> 100	> 100	> 100	–	–	–	–	–	–
COC(=O)CC1NC(=O)C1C1(C)OCCO1 (configuration not stated)	> 100	> 100	> 100	> 100	> 100	> 100	> 100	> 100	–	–	–	–	–	–
Cc1cc(N(CCC#N)CCC#N)ccc1/C=C1/N=C(c2ccccc2)N(N)C1=O	> 100	> 100	> 100	> 100	> 100	> 100	> 100	> 100	–	–	–	–	–	–
CCCCCCN(N)C(=O)CC#N	> 100	> 100	–	> 100	> 100	> 100	> 100	–	–	–	–	–	–	–
